{"source": "patent US9370606B2", "about": "“Scaffold-free self-organized 3D synthetic tissue” (Two Cells, Co., Ltd., priority 2003, dated 2016)", "key": {"[1]": {"system": "synovial membrane-derived synthetic tissue", "test": "Collagen content measurement (hydroxyproline) of synovial membrane-derived synthetic tissue", "format": "cell-based, pig", "protocol": "In order to determine the collagen concentration, the collagen content was measured. […] The amount of produced collagen is substantially proportional to the time period of culture (FIG. 8). Next, it was determined whether or not collagen (extracellular matrix) is sufficiently secreted after implantation of a synthetic tissue of the present invention. The following protocol was used. Culture periods: 3 days, 7 days, 14 days, and 21 days, Concentrations of ascorbic acid 2-phosphate: 0 mM, 0.1 mM, 1 mM, and 5 mM Under the above-described conditions, a synovial membrane-derived synthetic tissue was produced. 6 N HCl was added to culture medium for the synthetic tissue, followed by hydrolysis at 105° C. for 18 hours. The medium was oxidized with chloramine T. Thereafter, the synthetic tissue was subjected to color development using Ehrlich's Reagent Solution (2 g of p-dimethylamino-benzaldehyde+3 ml of 60% perchloric acid; isopropanol was diluted at 3:13), followed by measurement of absorbance."}, "[2]": {"system": "synovial cells", "test": "HE staining of synthetic tissue produced from synovial cells", "format": "cell-based, pig", "protocol": "Synovial cells were collected from a knee joint of a pig (LWD ternary hybrid, 2-3 months old upon removal of cells), followed by treatment with collagenase. The cells were cultured and subcultured in 10% FBS-DMEM medium (FBS was obtained from HyClone, DMEM was obtained from GIBCO). It has been reported that 10th passage synovial cells still have pluripotency. Although cells of 10 or less passages were used in this example, cells of more than 10 passages may be used depending on the application. Autotransplantation was performed for humans, where a sufficient number of cells were used and the cells were cultured for a short period of time so as to reduce the risk of infection or the like. Synovial cells (4.0×10^6) were cultured in 2 ml of 10% FBS-DMEM medium in a 35-mm dish, a 60-mm dish, or 100-mm dish (BD Biosciences, culture dish and multiwell cell culture plate). In this case, ascorbic acid was added. The dishes, the ascorbic acid concentrations, and the cell concentration are described below. Ascorbic acid 2-phosphate: 0 mM, 0.1 mM, 0.5 mM; 1 mM, 2 mM, and 5 mM Medium was exchanged two times per week until the end of a predetermined culture period. At the end of the culture period, a cell sheet was detached from the dish by pipetting circumferentially around the dish using a 100-μl pipetteman. After detachment, the cell sheet was made as flat as possible by lightly shaking the dish. […]"}, "[3]": {"system": "monolayer culture cells", "test": "Conditions for detachment during production of a synthetic tissue", "format": "cell-based", "protocol": "In this example, it was determined whether or not chemical detachment can be used instead of physical detachment (mechanical detachment (e.g., pipetting, etc.)) during the production of the synthetic tissue of the present invention.\nCell density: 4×10^4 cells/cm^2\nConditions: CO2 5%, air 95%, 37° C.\nMedium: DMEM/F12 (FBS 10%) supplemented with 10 ng/ml TGFβ1.\nThis medium was used to conduct culture under the conditions described in Examples 14 and 15 to produce a synthetic tissue.\nMedium: DMEM (GIBCO), FBS (HyClone) 10%, ITS+Premix (insulin, transferrin, selenious acid) (BD Biosciences) 6.25 μg/ml, dexamethasone (Sigma) 10^−7 M, ascorbic acid (WAKO) 50 μg/ml, pyrubic acid (SIGMA) 100 μg/ml."}, "[4]": {"system": "synovium-derived synthetic tissue", "test": "Influence of actin regulatory agents on contraction of a synthetic tissue", "format": "cell-based", "conditions": "dihydrocytochalasin B 3 μM, Y27632 10 μM; after detachment", "protocol": "Dihydrocytochalasin B and Y27632 (Yamanouchi Pharmaceutical), which are known to have an actin depolymerizing function, were used to study their influence on the contraction of a synthetic tissue.\nA synovium-derived synthetic tissue was produced by monolayer culture. The tissue was detached from a culture dish. The tissue was cultured in medium in the presence of dihydrocytochalasin B (3 μM) and Y27632 (10 μM). The transition of the radius of the tissue is shown every unit culture time in FIG. 40. […] Dihydrocytochalasin B and Y27632 are representative exemplary actin polymerization inhibitors. It will be understood by those skilled in the art that other actin polymerization inhibitors, such as cytochalasin D and the like, have a similar function."}}, "data": [{"compound": "O=C1O[C@H]([C@@H](O)CO)C(O)=C1OP(=O)(O)O", "note": "[ascorbic acid 2-phosphate]", "values": [{"measurement": "quantities of collagen produced, dependence on concentration", "setting": "[1]; 0, 0.1, 1 and 5 mM, culture 3 to 21 days", "value": 0, "unit": "mM<<5 mM<1 mM≦0.1 mM"}, {"measurement": "production of collagen (amount of hydroxyproline)", "setting": "[1]; 0.1 mM or more added", "value": "significantly promoted"}, {"measurement": "collagene content in the synthetic tissue", "setting": "[1]; 0.1 mM or more added, any of the culture periods", "value": "significantly increased"}, {"measurement": "formation of an extracellular matrix", "setting": "[2]; 0.1 mM or more", "value": "promoted"}, {"measurement": "Eosin staining of the synthetic tissue", "setting": "[2]; concentration of more than 0.1 mM", "value": "more intense"}]}, {"compound": "TGF-β: transforming growth factor, 10 ng/ml TGFβ1 in medium", "values": [{"measurement": "detachment of monolayer culture cells from the culture dish", "setting": "[3]; 10 ng/ml TGFβ1 in DMEM/F12 (FBS 10%)", "value": "more easily detached"}, {"measurement": "effect on culture cells", "setting": "[3]; added in monolayer culture, no physical stimulus", "value": "has the effect of detaching culture cells"}]}, {"compound": "C=C1[C@@H](C)[C@H]2[C@H](Cc3ccccc3)NC(=O)[C@]23OC(=O)CC[C@H](O)CCC[C@@H](C)C/C=C/[C@H]3[C@@H]1O", "note": "[dihydrocytochalasin B, Dihydrocytochalasin B]", "values": [{"measurement": "contraction of the synthetic tissue (radius over culture time)", "setting": "[4]", "value": "inhibited"}]}, {"compound": "C[C@@H](N)[C@H]1CC[C@H](C(=O)Nc2ccncc2)CC1", "note": "[Y27632]", "values": [{"measurement": "contraction of the synthetic tissue (radius over culture time)", "setting": "[4]", "value": "inhibited"}]}]}
